Source: ChEMBL document CHEMBL4219053, “Antiobesity and emetic effects of a short-length peptide YY analog and its PEGylated and alkylated derivatives” (Bioorg Med Chem, 2018)

How the values were obtained:
[1] = Drug uptake in DIO C57BL/6J mouse serum at 0.01 mg/kg/day, sc for 2 weeks; type: ADME, organism-based; conditions: read-out: Drug uptake
[2] = Cmax in Beagle dog at 0.01 mg/kg, sc; type: ADME, organism-based, Canis lupus familiaris; parameters: dose 0.01 mg/kg, route subcutaneous; conditions: in vivo
[3] = Cmax in dog at 0.01 mg/kg/day, sc administered as infusion after 8 hrs; type: ADME, organism-based, Canis lupus familiaris; parameters: dose 0.01 mg/kg/day, route subcutaneous; conditions: in vivo
[4] = system: Canis familiaris; assay: Emetic effect in Beagle dog at 0.01 mg/kg, sc measured after 1 hr; type: ADME, organism-based, Canis lupus familiaris; conditions: in vivo
[5] = system: Canis familiaris; assay: Emetic effect in dog at 0.003 mg/kg/day, sc as infusion for 8 hrs; type: ADME, organism-based, Canis lupus familiaris; conditions: in vivo
[6] = Tmax in Beagle dog at 0.01 mg/kg, sc; type: ADME, organism-based, Canis lupus familiaris; conditions: in vivo
[7] = system: Mus musculus; assay: Emetic effect in DIO C57BL/6J mouse at 0.01 mg/kg, sc for 2 weeks; type: ADME, organism-based; conditions: in vivo, 336 h
[8] = system: Canis familiaris; assay: Emetic effect in Beagle dog at 0.01 mg/kg, sc measured after 1 to 24 hrs; type: organism-based, Canis lupus familiaris; conditions: in vivo
[9] = Cmax in dog at 0.003 mg/kg/day, sc administered as infusion after 8 hrs; type: ADME, organism-based, Canis lupus familiaris; parameters: dose 0.003 mg/kg/day, route subcutaneous; conditions: in vivo
[10] = Cmax in dog at 0.01 mg/kg, sc administered as bolus; type: ADME, organism-based, Canis lupus familiaris; parameters: dose 0.01 mg/kg, route subcutaneous; conditions: in vivo

concentration at 336 h [1]: 0.225 ng/mL
Cmax [2]: 2.9 ng/mL
Cmax [3]: 0.74 ng/mL
Tmax [6]: 36 min
Cmax [9]: 0.18 ng/mL
Cmax [10]: 2.9 ng/mL
SMILES: CC[C@](C)(NC(=O)[C@H]1C[C@H](O)CN1C(=O)[C@H](CO)NC(=O)c1c[nH]cn1)C(=O)N[C@@H](Cc1ccncc1)C(=O)N[C@@H](CC1CCCCC1)C(=O)N[C@@H](CC(C)(C)C)C(=O)N[C@@H](CC(N)=O)C(=O)N[C@@H](CCCCN)C(=O)NC(C)(C)C(=O)N[C@H](C(=O)N[C@@H](CCCNC(=N)N)C(=O)N[C@@H](CCC(N)=O)C(=O)N[C@@H](CCCNC(=N)N)C(=O)N[C@@H](CC1CCCCC1)C(N)=O)[C@@H](C)O
Activity [4]: Toxic
Activity [5]: Toxic
Activity [7]: Toxic
Activity [8]: Non-Toxic
